For the assay, the system named is Plasmodium falciparum. The assay can be described thus: Antiplasmodial activity against ring-stage chloroquine-resistant Plasmodium falciparum Dd2 assessed as reduction in parasite viability after 72 hrs by SYBR Green I dye-based assay. The format is functional, organism-based. To be noted: Dd2, 72 h.

pIC50: −log10 of the molar value.

Regarding `CC(C)=CCc1c(O)cc(O)c2c1O[C@H](c1ccc(O)cc1)CC2=O`, the negative logarithm of the IC50 (pIC50) (in general, −log10 of the IC50, conventionally taken in molar units) is 5.17.
Then `COc1c(O)cc([C@@H]2CC(=O)c3c(O)cc(O)c(CC=C(C)C)c3O2)cc1O`, with 5.28.
Consider `COc1cc2c(c(O)c1C)C(=O)C[C@@H](c1cc(O)c(OC)c(O)c1)O2`, for which the pIC50 is below 5.00.
As to `CC(C)(O)CCc1c(O)cc(O)c2c1O[C@H](c1ccc(O)cc1)CC2=O`, the pIC50 was 5.47.
The figure for `COc1c(O)cc([C@@H]2CC(=O)c3c(O)c(C)c(O)c(C)c3O2)cc1O` is below 5.00.
Then `COc1c(O)ccc(/C=C/c2cc(O)cc(O)c2)c1CC=C(C)C`, with 5.24; and `COc1c(O)cc([C@@H]2CC(=O)c3c(O)c(C)c(OC)c(C)c3O2)cc1O`, with below 5.00; and `C[C@@H]1CC[C@H]2[C@@H](C)C(=O)O[C@@H]3O[C@@]4(C)CC[C@@H]1[C@]32OO4` [ARTEMISININ], with 7.92.
